Experimental data published in ChEMBL document CHEMBL1126334, “Thromboxane receptor antagonist BMS-180291: A new pre-clinical lead” (Bioorg Med Chem Lett, 1992).
Active and inactive are the calls of the source. The calls are words filed in the database; no cut-off is given here.

Columns and labels:
[1] = Oral bioavailability in African green monkeys; 20-25; format: ADME, organism-based; details: chlorocebus aethiops, in vivo, read-out: Bioavailabiility
Bos taurus = species on record: Bos taurus; assay: Compound was tested at 1 nM for the inhibition of […] in bovine seminal vesicle microsomes; NI=No inhibition; format: functional
Homo sapiens = species on record: Homo sapiens; assay: Compound was tested at 1 mM for the inhibition of ADP-induced (20 uM) platelet aggregation in human platelet-rich plasma; NI=No inhibition; format: functional, organism-based
Monkey = assay: Oral dose of compound required to inhibit the U46,619-induced platelet aggregation in ex vivo African green monkeys; format: functional, Cercopithecidae
Mus musculus = assay: Time duration taken by the compound (0.2 mg/kg, po) to provide extended protection from U46,619 (2 mg/kg, iv) induced death; format: functional
Rattus norvegicus = species on record: Rattus norvegicus; assay: Compound was tested for the inhibition of U46,619-induced contractions in rat aortas; format: functional; details: Aorta
[2] = biological target: T1, Thromboxane-A synthase (Homo sapiens) (UniProt P24557); assay: Compound was tested for activity against Thromboxane A2 synthase in human PRP; NI=No inhibition
T1 sequence (whole entry): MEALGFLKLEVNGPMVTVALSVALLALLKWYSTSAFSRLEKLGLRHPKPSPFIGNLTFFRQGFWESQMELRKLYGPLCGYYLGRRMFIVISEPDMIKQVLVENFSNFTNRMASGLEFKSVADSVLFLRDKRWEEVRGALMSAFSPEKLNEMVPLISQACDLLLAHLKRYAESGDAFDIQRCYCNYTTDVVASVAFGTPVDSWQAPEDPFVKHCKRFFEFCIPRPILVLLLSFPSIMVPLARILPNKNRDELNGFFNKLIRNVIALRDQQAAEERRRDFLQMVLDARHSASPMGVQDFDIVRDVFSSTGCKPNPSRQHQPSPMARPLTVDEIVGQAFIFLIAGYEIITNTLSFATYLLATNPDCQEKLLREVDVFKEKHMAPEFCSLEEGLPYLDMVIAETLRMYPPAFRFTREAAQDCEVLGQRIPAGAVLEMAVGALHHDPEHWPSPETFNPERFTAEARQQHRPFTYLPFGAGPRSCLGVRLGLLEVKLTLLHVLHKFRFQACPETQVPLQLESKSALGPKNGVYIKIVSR

CCCCCNC(=O)c1coc([C@H]2[C@@H](Cc3ccccc3CCC(=O)O)[C@@H]3CC[C@H]2O3)n1 [IFETROBAN]
bioavailability [1]: 20%
Activity (Bos taurus): inactive
Activity (Homo sapiens): inactive
Dose (Monkey): 3 mg/kg
T50 (Mus musculus): 14 h
Kb (Rattus norvegicus): 0.56 nM
Activity [2]: inactive
